Columns and labels:
[1] = system: neural crest stem cells (NCSCs) from fetal (E14.5) rat gut; experiment: Rat neural crest stem cell assays (self-renewal, colony size, differentiation); assay type: cell-based
Method: Enteric NCSCs from the fetal (E14.5) rat gut were isolated using flow cytometry to select the 1%-2% of cells expressing the highest levels p75 and α4 integrin as previously described^9. Cells were plated at clonal density in two wells/treatment and cultured in self-renewal medium for 8 days in LEF, A771726 or the vehicle (DMSO) followed by differentiation medium+/−LEF, A771726 or DMSO for 6 days. Cultures were fixed in 4% PFA then stained with antibodies against peripherin, GFAP, and SMA to identify neurons (N), glia (G) and myofibroblasts (M) respectively (U=unstained cells). A total of 3 to 4 independent experiments were performed, and differences measured by ANOVA followed by Bonferonni posthoc comparison. Self-renewal medium contains: DMEM-low glucose, 15% Chick Embryo Extract (CEE), Penn/Strep (P/S), 1% N2 supplement, 2% B27 supplement, 110 nM Retinoic Acid, 50 μM 2-mercaptoethanol 20 ng/ml bFGF, and 20 ng/ml IGF-1. Differentiation medium is the same except it contains 1% CEE, 10 ng/ml bFGF and no IGF-1. Differences between groups were calculated using ANOVA followed by posthoc Sheffe.
Dissociated fetal rat gut cells were plated at clonal density in non-adherent conditions in self-renewal medium with LEF, a77 or DMSO for 10 days^10. Three to five primary neurospheres per treatment were individually re-plated in adherent conditions with LEF, a77 or DMSO and after three days were dissociated into a single cell suspension using trypsin and collagenase IV. Dissociated cells from each neurosphere were re-plated in non-adherent conditions without LEF or a77 and after 10 days, the number of secondary neurospheres were counted and compared. To assess the number of multipotent primary and secondary neurospheres, a subset of neurospheres were plated adherently for 8 days in self-renewal medium followed by 6 days in differentiation medium. Cultures were fixed in 4% PFA and stained with antibodies against peripherin, GFAP, and SMA to identify neurons (N), glia (G) and myofibroblasts (M) respectively. A total of 5 independent experiments were analyzed, and the number of multipotent secondary neurospheres on a given day are normalized to the DMSO control wells, and differences calculated by ANOVA.

P. falciparum DHODH = molecular target: T1, P. falciparum DHODH (Plasmodium falciparum, UniProt Q08210); experiment: In vitro DHODH assay (DCIP reduction), malarial enzyme; assay type: biochemical; settings: FIG. 11
T1 sequence (Q08210 24-569): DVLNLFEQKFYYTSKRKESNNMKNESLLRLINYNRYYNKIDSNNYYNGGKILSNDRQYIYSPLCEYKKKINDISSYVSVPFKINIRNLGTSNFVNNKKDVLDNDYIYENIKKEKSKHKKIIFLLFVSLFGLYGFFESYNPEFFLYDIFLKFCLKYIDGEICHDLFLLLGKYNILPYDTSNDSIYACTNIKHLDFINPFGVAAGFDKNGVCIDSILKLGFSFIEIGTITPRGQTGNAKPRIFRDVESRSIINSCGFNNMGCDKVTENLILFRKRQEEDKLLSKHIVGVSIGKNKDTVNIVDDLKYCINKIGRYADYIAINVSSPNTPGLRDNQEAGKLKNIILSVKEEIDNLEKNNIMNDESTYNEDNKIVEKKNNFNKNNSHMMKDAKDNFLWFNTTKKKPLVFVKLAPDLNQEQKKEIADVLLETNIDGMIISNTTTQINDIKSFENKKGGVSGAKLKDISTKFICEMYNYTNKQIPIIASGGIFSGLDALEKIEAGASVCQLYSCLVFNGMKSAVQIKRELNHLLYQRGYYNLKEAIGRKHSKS
Method: (§1) The DHODH activity assay monitored the reduction of 2,6-dichloroindophenol (DCIP) and was conducted in 50 μl of 100 mM HEPES (pH 8.0) containing 150 mM NaCl, 5% glycerol, 0.05% Triton X-100, 175 μM L-DHO, 18 μM decylubiquinone (CoQD), and 95 μM DCIP, arrayed in a 384-well format. The concentrations of enzymes used were as follows: P. falciparum 12.5 nM, human 7 nM. Following a 20 minute incubation at room temperature the absorbance was measured at 600 nm (Envision, PerkinElmer).

human DHODH = human DHODH (Homo sapiens, UniProt Q02127); experiment: In vitro DHODH assay (DCIP reduction), human enzyme; assay type: biochemical; settings: FIG. 11
human DHODH, sequence (Q02127 whole entry): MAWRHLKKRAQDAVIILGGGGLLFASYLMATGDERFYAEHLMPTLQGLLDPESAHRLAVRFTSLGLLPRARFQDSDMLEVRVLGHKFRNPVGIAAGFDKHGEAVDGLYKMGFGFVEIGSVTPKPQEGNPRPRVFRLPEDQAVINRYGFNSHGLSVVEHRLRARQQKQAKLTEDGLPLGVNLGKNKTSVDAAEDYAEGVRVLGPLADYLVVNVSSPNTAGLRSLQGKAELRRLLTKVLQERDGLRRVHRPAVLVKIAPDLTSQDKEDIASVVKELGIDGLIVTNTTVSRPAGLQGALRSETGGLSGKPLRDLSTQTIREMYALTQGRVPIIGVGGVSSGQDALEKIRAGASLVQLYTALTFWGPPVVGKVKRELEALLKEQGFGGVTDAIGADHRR
Method: as §1

ventral melanocytes = experiment: Ventral melanocytes in Xenopus embryos; assay type: in vivo; settings: stage 38 embryos
[2] = system: crestin+ neural crest progenitors; experiment: In situ hybridization (ISH) for crestin in zebrafish embryos (chemical screen for suppressors of neural crest development); assay type: in vivo; settings: for rescue of neural crest population (crestin ISH): in the presence of leflunomide, A771726 or DH #1
Method: The screen was performed essentially as previously described^31. In brief, WT embryos were collected, staged and then plated at a density of 10 embryos per well in a […] tissue culture plate in 200 ul of E3 water. At 50% epiboly, 100 ul of a 3× chemical stock was added to each well using a Hamilton liquid handling robot, yielding a final 1× concentration. For the majority of the chemicals in the library, this yielded a concentration of ˜33 uM. The libraries used were the BIOMOL 480, Sigma LOPAC 1280, and selected additional compounds obtained through the Children's Hospital Boston Chemical Screening facility. Compounds known to affect pigmentation in Xenopus were obtained from a screen previously described^32, 33. After treatment, embryos were rinsed in E3 water, pronase treated to remove chorions, washed 4× in E3 and 1× in PBT, and then fixed in 4% PFA for 24 hours. Fixed embryos were changed to 100% methanol 24 h later, and kept until the time of ISH.
Embryos underwent automated ISH using a Biolane HTI robot with a crestin riboprobe as previously described^31. All wells were manually scored by eye, assigning a score within a range of 1 (no crestin staining) to 3 (no change in crestin) to 5 (marked increase in crestin). Note was also taken of chemicals that affected migratory patterns in both A-P and D-V directions, and overall morphology. […] All hits were validated in larger, independent clutches of 100-200 embryos using chemicals obtained from independent suppliers.

A375 melanoma cells = experiment: In vivo xenograft study of A375 cells in nude mice; design: species or system mouse; settings: daily i.p.; PLX4720 2.5 mg/kg, Leflunomide 7.5 mg/kg; DMSO 7.4+/−1.3-fold
Method: The A375 cell line was chosen for xenografts based on prior experience with PLX4720 in this line. Cells were grown to 60-70% confluence, trypsinized and 3.5×10^5 cells were transplanted into the right flank of nude mice in a volume of 200 ul. […] Tumors were measured with digital calipers on day 4, 7 and 12 and growth rate was compared to the tumor size on day 0. Growth rates were compared between DMSO, PLX, LEF or […] using ANOVA with repeated measures to identify significant interactions. For the day 12 data, differences between the groups were compared using ANOVA followed by posthoc Tukey's least-squared difference.

[3] = system: human melanoma cell lines (A375, Hs.294t, RPMI7951); experiment: In vitro melanoma proliferation assay (CellTiterGlo); assay type: cell-based; settings: RPMI7951 (BRAFV600E)
Method: (§2) Human melanoma cell lines (A375, RPMI7951, Hs.294T, MAMLE-3M) were obtained from the American Type Culture Collection. The 8988 cell line was provided by Alec Kimmelman at Dana Farber, and the PANC1 and MDA-231-MB lines were provided by Rania Hartouche at Harvard. Cells were cultured in DMEM/10% FCS at 37 C, 5% CO2. For proliferation assays, 96-well clear bottom plates were used to plate cells at a density of 5,000 cells/well (RPMI7951 and A375) or 10,000 cells/well (MAMLE-3M-3M and Hs.294T) in 100 ul containing indicated concentrations of A771726 or PLX4720 or DMSO. All conditions were tested in triplicate. Media was changed at day 2, and proliferation rate was measured at day 4 using the CellTiterGlo assay kit (Promega). All values are expressed are the % of luciferase relative to the DMSO control well. Differences between groups were statistically analyzed using a generalized linear ANOVA model taking into account factors of PLX4720, A771726 and dose. IC50's were calculated using a log-logistic model.

[4] = system: pancreatic cancer (8988, PANC1) and breast cancer (MDA-MD-231) cell lines; experiment: In vitro proliferation assay in non-melanoma cell lines; assay type: cell-based, human; settings: BRAF WT; 8988, PANC1, MDA-MD-231
Method: as §2

`C/C(O)=C(\C#N)C(=O)Nc1ccc(C(F)(F)F)cc1` [A771726, teriflunomide] was tested, and the “colony size reduced compared to controls” value [1] was 24% and the “number of self-renewing NCSCs from primary stem cell colonies” value [1] was 35+/−6.16 % of controls.
`O=C(O)c1cc(-c2ccc(-c3ccc(-c4cc(C(=O)O)c5cc(Cl)ccc5n4)cc3)cc2)nc2ccc(Cl)cc12` [NSC210627] was tested, and the “inhibition of purified malarial DHODH” value (P. falciparum DHODH) was “strong inhibition of both enzymes”, the “inhibition of purified human DHODH” value (human DHODH) was “strong inhibition of both enzymes, at lower concentrations in the human versus malarial forms” and the “ventral melanocytes in Xenopus embryos” value (ventral melanocytes) was “reduction of ventral melanocytes”. For the same molecule, the “crestin expression by ISH” value ([2]; zebrafish embryos, 50% epiboly to 24 hpf) was “strongly abrogated expression of crestin”.
With `CCCS(=O)(=O)Nc1ccc(F)c(C(=O)c2c[nH]c3ncc(Cl)cc23)c1F` [PLX4720] the “tumor growth at 12 days post-treatment” value (A375 melanoma cells) was 5.7+/−0.16 fold, the “sensitivity of RPMI7951 to the BRAF inhibitor” value [3] was “significantly less sensitive than the other tested cell lines” and the “proliferation of non-melanoma cell lines” value [4] was “no effect”.
In the case of `C[C@@]1(CO)[C@H](O)CC[C@@]2(C)[C@H]1CC[C@H]1C[C@@H]3C[C@@]12CC[C@]3(O)CO` [aphidicolin], the “rescue of neural crest population (crestin ISH)” value (“rescue” below) [2] is reported as “rescue of the neural crest population”.
With `CCCCCCCCCCC1=C(C)C(=O)C(OC)=C(OC)C1=O` [decylubiquinone] the “rescue” value [2] was “rescue of the neural crest population”.
For `CC(=O)[C@H]1CC[C@H]2[C@@H]3CCC4=CC(=O)CC[C@]4(C)[C@H]3CC[C@]12C` [progesterone], the “rescue” value [2] was “rescue of the neural crest population”.

From patent publication US10646478B2, “Methods for treatment of melanoma” (CHILDREN'S MEDICAL CENTER CORPORATION, priority 2011, dated 2020)
